Read-outs that look alike come from different tables or passages of the source. Ends that are not written are not given here.
Experiments:
[1] = in SDS, as previously reported, cited from earlier work
Text: Table 1 SMAP-29 derivatives used in this study and others with sequences and defining characteristics. ^a Estimated charge calculated from Innovagen’s peptide property calculator. ^b The helical activity of peptides as previously reported in the referenced manuscripts. ND: not determined. | column: % Helical (SDS) ^b

[2] = tested on: A. baumannii BAA747; conditions: cited from earlier work
Text: (§1) Table 2 MIC Values (µM) for SMAP-29 Derivatives. * Previously reported data from reference r comparison. | column: OV3 *; Cu-1 *; Cu-2 *; Cu-3 *; Cu-4 * || Table 4 MIC values for antimicrobial peptides utilized in this study. MIC values for a variety of the presented peptides have been previously determined in alternative conditions; values here are the result of experimental efforts to determine MICs under the conditions utilized for further study of FIC potential, with the exception of Sub5 and Sub5-01, previously characterized in our laboratory, w | column: Sub5; Sub5-01

[3] = tested on: K. pneumoniae 700603; conditions: cited from earlier work
Text: as §1

[4] = tested on: P. aeruginosa 27583; conditions: cited from earlier work
Text: as §1

[5] = tested on: E. faecium 700221 (VRE); conditions: cited from earlier work
Text: as §1

[6] = tested on: S. aureus 43300 (MRSA); conditions: cited from earlier work
Text: as §1

[7] = tested on: E. coli 25922; conditions: cited from earlier work
Text: as §1

[8] = tested on: MRSA 43300; assay: FIC of peptide pairs (two-way dilution, 96-well plate); assay type: cell-based, S. aureus; conditions: single peptide on the FIC plate
Method: (§2) Determining MIC values informed decisions on testing peptides in combination. Fractional inhibitory concentrations determine the ability of test articles to act in concert against a pathogen. FIC determination is experimentally similar to MIC determination, except one test article is diluted down the wells and another is diluted across the wells of the 96-well plate in order to test the synergism of two peptides. […] Synergy is defined as an FIC of less than or equal to 0.5, meaning there is a four-fold reduction in the concentration of each peptide required for inhibition. Any number above 4 indicates a deleterious interaction that reduces the effectiveness of each peptide, and a value between 0.5 and 1 can be considered additive (Equation (2)).
(§3) Fractional inhibitory concentrations (FICs) were determined in a manner similar to MIC determinations but with serial dilutions of two peptides running both horizontally and vertically across the 96-well plate. Determination of the FIC can be seen in Equation (2), where FIC is the fractional inhibitory concentration, [A] is the concentration of substrate A at MIC in combination, [B] is the concentration of substrate B at MIC in combination, and MICA and MICB are the MIC of substrate A and substrate B, respectively. FIC = fractional inhibitory concentration, [A] = concentration of A at MIC in combination, [B] = concentration of B at MIC in combination, MICA = minimum inhibitory concentration of A, and MICB = minimum inhibitory concentration of B. When FIC ≤ 0.5 the results are synergistic. If FIC > 4, the results are antagonistic, and when FIC > 0.5, the results are indifferent or additive. (2) FIC=[A]/MICA+ [B]/MICB

[9] = tested on: E. coli 25922; assay: as above; assay type: cell-based, Escherichia coli; conditions: single peptide on the FIC plate
Method: as §2, §3

[10] = tested on: E. coli 25922; conditions: single peptide on the FIC plate, cited from earlier work
Text: Figure 6 Summary of peptide interactions in E. coli 25922 from data presented in Results and Supplemental Material. Synergistic (or non-synergistic) interactions for CP10A, TempL, OV3-00 and OV3-01 with other peptides are grouped as shown. Parental and ATCUN derivatives are outlined in the same shape with the average FIC value shown in parentheses. TEXT PRINTED IN THE PICTURE: Sub5: E. coli 25922, CP10A, Synergistic: (0.4); E. coli 25922, TempL, Additive/Indifferent: (1) | Sub5-01: E. coli 25922, CP10A, Synergistic: (0.42); E. coli 25922, TempL, Additive/Indifferent: (0.78) | Mag2-01: E. coli ... || page 3: For Tables S3-S10: FIC Index = [A]/[MICA] + [B]/[MICB], where [A] and [B] are the concentrations of respective peptides at which no growth was observed when dosed in combination, and [MICA] and [MICB] are the concentrations where no growth was observed when dosed separately. The data from each experiment repeated in duplicate or triplicate is shown and bolded data in the final row is the average FIC value. Error is reported as the standard deviation of the mean. Table S3. FIC values for Interactions of CP10A and TempL in E. coli 25922. * Previously reported data from reference for ... || page 4: Table S4. FIC values for the non-ATCUN containing parental peptides in E. coli 25922. A CP10A CP10A CP10A TempL TempL TempL TempL B Sub5 13 Mag2 OV3-00 Sub5 TRP Mag2 OV3-00 [A] 2/4/4 2/2/1 2/2/0.5 2/2/2 1/1/1 0.25/1/2 2/2/2 MICA 16/16/16 4/4/2 4/4/4 4/4/4 2/4/2 4/4/4 16/16/16 [B] 1/0.5/0.25 2/2/2 0.5/1/1 4/4/4 4/4/4 4/2/0.125 4/1/1 MICB 4/2/4 4/4/4 2/2/2 8/8/8 8/8/8 8/8/8 8/2/2 FIC 0.375/0.328/0.5 1/1/1 0.75/1/0.625 1/1/1 1/0.75/1 0.56/0.5/0.52 0.625/0.625/0.625 FICAvg 0.40 ± 0.04 1 0.78 ± 0.2 1 0.9 ± 0.14 0.53 ± 0.03 0.625 Table S5. FIC Values for ATCUN peptide derivatives in MRSA 433 ...

[11] = tested on: A. baumannii BAA747; parameters: method as in ref 13 of the supplement ([11] in main text); conditions: Acinetobacter baumannii, single peptide on the FIC plate, ref 13 of the supplement ([11] in main text), cited from earlier work
[12] = tested on: MRSA 43300; parameters: method as in ref [13] of the supplement ([11] in main text); conditions: single peptide on the FIC plate, cited from earlier work
[13] = previously reported data, ref [8]
[14] = P. aeruginosa (27583), previously reported data, ref [8]
[15] = replicate 1, ref [13] of the supplement ([11] in main text)
[16] = replicate 2, ref [13] of the supplement ([11] in main text)
[17] = replicate 3, ref [13] of the supplement ([11] in main text)
[18] = taken from earlier work, ref [7]
[19] = P. aeruginosa 27583, taken from earlier work, ref [7]

## GGHGIRRIIRKIIHIIKKGGC-NH2 [Cu-2, ATCUN-OV3 derivative from the authors' earlier work]
[1]; ref [8]
  % Helical (SDS): 56% [8]
[2]; [13]
  MIC: 9.3 µM
[3]; [13]
  MIC: >16 µM
[4]; [14]
  MIC: 12 µM
[5]; [13]
  MIC: 8 µM
[6]; [13]
  MIC: 4 µM
[7]; [13]
  MIC: 3 µM

## GGHGIRRIIRKIIHIKK-NH2 [Cu-1, ATCUN-OV3 derivative from the authors' earlier work]
[1]; ref [8]
  % Helical (SDS): 14% [8]
[2]; [13]
  MIC: 2.7 µM
[3]; [13]
  MIC: 16 µM
[4]; [14]
  MIC: >16 µM
[5]; [13]
  MIC: 16 µM
[6]; [13]
  MIC: 16 µM
[7]; [13]
  MIC: >16 µM

## GGHIRRIIRKIIHIIKK-NH2 [Cu-3, ATCUN-OV3 derivative from the authors' earlier work]
[1]; ref [8]
  % Helical (SDS): 35% [8]
[2]; [13]
  MIC: 5.3 µM
[3]; [13]
  MIC: 16 µM
[4]; [14]
  MIC: >16 µM
[5]; [13]
  MIC: 8 µM
[6]; [13]
  MIC: 16 µM
[7]; [13]
  MIC: >16 µM

## GGHIRRIIRKIIHIIKKGGC-NH2 [Cu-4, ATCUN-OV3 derivative from the authors' earlier work]
[1]; ref [8]
  % Helical (SDS): 64% [8]
[2]; [13]
  MIC: 10.7 µM
[3]; [13]
  MIC: 8 µM
[4]; [14]
  MIC: 4 µM
[5]; [13]
  MIC: 3.3 µM
[6]; [13]
  MIC: 1.5 µM
[7]; [13]
  MIC: 1.3 µM

## GGHRRWKIVVIRWRR-NH2 [Sub5-01, ATCUN derivative of Sub5, previously characterized by the authors]
[8]; replicate 1
  MICA/MICB, concentration with no growth when dosed separately: 4 µM
[8]; replicate 2
  MICA/MICB, concentration with no growth when dosed separately: 4 µM
[8]; replicate 3
  MICA/MICB, concentration with no growth when dosed separately: 4 µM
[9]; replicate 1
  MICA/MICB, concentration with no growth when dosed separately: 8 µM
[9]; replicate 2
  MICA/MICB, concentration with no growth when dosed separately: 8 µM
[9]; replicate 3
  MICA/MICB, concentration with no growth when dosed separately: 8 µM
[10]; [15]
  MICA/MICB, concentration with no growth when dosed separately: 4 µM
[10]; [16]
  MICA/MICB, concentration with no growth when dosed separately: 4 µM
[10]; [17]
  MICA/MICB, concentration with no growth when dosed separately: 4 µM
[11]; replicate 1
  MICA/MICB, concentration with no growth when dosed separately: 1 µM
[11]; replicate 2
  MICA/MICB, concentration with no growth when dosed separately: 2 µM
[11]; replicate 3
  MICA/MICB, concentration with no growth when dosed separately: 1 µM
[2]; [18]
  MIC: 1 µM
[3]; [18]
  MIC: 2 µM
[4]; [19]
  MIC: 2 µM
[5]; [18]
  MIC: 0.4 µM
[6]; [18]
  MIC: 1 µM
[7]; [18]
  MIC: 2.7 µM
[12]; [15]
  MICA/MICB, concentration with no growth when dosed separately: 16 µM
[12]; [16]
  MICA/MICB, concentration with no growth when dosed separately: 16 µM
[12]; [17]
  MICA/MICB, concentration with no growth when dosed separately: 16 µM

## IRRIIRKIIHIIKK-NH2 [OV3, SMAP-29 derivative, parental peptide of Cu-1 to Cu-4]
[1]; ref [8]
  % Helical (SDS): 38% [8]
[2]; [13]
  MIC: 1 µM
[3]; [13]
  MIC: >16 µM
[4]; [14]
  MIC: 16 µM
[5]; [13]
  MIC: 16 µM
[6]; [13]
  MIC: >16 µM
[7]; [13]
  MIC: >16 µM

## KNLRRIIRKIIHIIKKYGPTILRIIRIIG [OV, SMAP-29 derivative]
[1]; ref [17]
  % Helical (SDS): 86% [17]

## RRWKIVVIRWRR-NH2 [Sub5, bactenecin derivative]
[8]; replicate 1
  MICA/MICB, concentration with no growth when dosed separately: 4 µM
[8]; replicate 2
  MICA/MICB, concentration with no growth when dosed separately: 4 µM
[8]; replicate 3
  MICA/MICB, concentration with no growth when dosed separately: 4 µM
[9]; replicate 1
  MICA/MICB, concentration with no growth when dosed separately: 8 µM
[9]; replicate 2
  MICA/MICB, concentration with no growth when dosed separately: 8 µM
[9]; replicate 3
  MICA/MICB, concentration with no growth when dosed separately: 8 µM
[10]; [15]
  MICA/MICB, concentration with no growth when dosed separately: 4 µM
[10]; [16]
  MICA/MICB, concentration with no growth when dosed separately: 2 µM
[10]; [17]
  MICA/MICB, concentration with no growth when dosed separately: 4 µM
[11]; replicate 1
  MICA/MICB, concentration with no growth when dosed separately: 2 µM
[11]; replicate 2
  MICA/MICB, concentration with no growth when dosed separately: 2 µM
[11]; replicate 3
  MICA/MICB, concentration with no growth when dosed separately: 2 µM
[2]; [18]
  MIC: 0.8 µM
[3]; [18]
  MIC: 1.7 µM
[4]; [19]
  MIC: 4 µM
[5]; [18]
  MIC: 0.5 µM
[6]; [18]
  MIC: 2 µM
[7]; [18]
  MIC: 3.3 µM
[12]; [15]
  MICA/MICB, concentration with no growth when dosed separately: 1 µM
[12]; [16]
  MICA/MICB, concentration with no growth when dosed separately: 2 µM
[12]; [17]
  MICA/MICB, concentration with no growth when dosed separately: 2 µM

From article PMC9692552, “Activity and Synergy of Cu-ATCUN Antimicrobial Peptides” (International Journal of Molecular Sciences, 2022)
